We go through 23 molecules from ChEMBL document CHEMBL5143510, “Structure modification and biological evaluation of indole-chalcone derivatives as anti-tumor agents through dual targeting tubulin and TrxR” (Eur J Med Chem, 2022).

Broadly, the IC50 is the point on the concentration scale where inhibition reaches its midpoint.

The subject of one experiment is A2780. The experiment is described as follows: Antiproliferative activity against human A2780 cells assessed as reduction in cell viability incubated for 48 hrs by MTT assay. Type of experiment: functional, cell-based. The settings on record: A2780, 48 h. Background: Tetrazolium dyes change colour on reduction, which living cells bring about.
Experiment [1] has as its system MHCC97H. The experiment is described as follows: Antiproliferative activity against human MHCC97H cells assessed as reduction in cell viability incubated for 48 hrs by MTT assay. It is filed as functional, cell-based.
In the next experiment the test system is MCF7. The experiment is described as follows: Antiproliferative activity against human MCF7 cells assessed as reduction in cell viability incubated for 48 hrs by MTT assay. The settings on record: MCF7, 48 h. It is filed as functional, cell-based.
For another experiment, the system named is HeLa. Description: Antiproliferative activity against human HeLa cells assessed as reduction in cell viability incubated for 48 hrs by MTT assay. It is filed as functional, cell-based.
For a further experiment, the system named is A549. Description: Antiproliferative activity against human A549 cells assessed as reduction in cell viability incubated for 48 hrs by MTT assay. Type of experiment: functional, cell-based. The note with it: A549, 48 h.
In another experiment the test system is HCT-8. Description: Antiproliferative activity against human HCT-8 cells assessed as reduction in cell viability incubated for 48 hrs by MTT assay. It is filed as functional, cell-based. The settings on record: HCT-8, 48 h.
Experiment [2] can be described thus: Antiproliferative activity against paclitaxel resistant human A2780/PTX cells assessed as reduction in cell viability incubated for 48 hrs by MTT assay. Type of experiment: functional, cell-based.
Experiment [3] can be described thus: Resistance index, ratio of IC50 for antiproliferative activity against paclitaxel resistant human A2780/PTX cells to IC50 for antiproliferative activity against human A2780 cells. Type of experiment: functional.
Experiment [4] can be described thus: Resistance index, ratio of IC50 for antiproliferative activity against vincristine resistant human HCT-8/VCR cells to IC50 for antiproliferative activity against human HCT-8 cells. Type of experiment: functional.
A short description of experiment [5]: Antiproliferative activity against vincristine resistant human HCT-8/VCR cells assessed as reduction in cell viability incubated for 48 hrs by MTT assay. Type of experiment: functional, cell-based.
Experiment [6] deals with MHCC97H. Description: Antitumor activity against human MHCC97H cells xenografted in BALB/c mouse assessed as tumor weight at 30 mg/kg, ip administered every other day for 30 days. Type of experiment: functional. The note with it: time 30 day. For orientation: In xenograft studies the graft and the host belong to different species.
The subject of experiment [7] is MHCC97H. Description: Antitumor activity against human MHCC97H cells xenografted in BALB/c mouse assessed as tumor growth inhibition at 30 mg/kg, ip administered every other day for 30 days. The note with it: 720 h, time 30 day, read-out: TGI. It is filed as functional.
In experiment [8] the test system is MHCC97H. The experiment is described as follows: Antitumor activity against human MHCC97H cells xenografted in BALB/c mouse assessed as tumor volume at 30 mg/kg, ip administered every other day for 30 days. The settings on record: time 30 day. Type of experiment: functional.
Another experiment concerns NCI/ADR-RES. Description: Antiproliferative activity against adriamycin resistant human MCF7/ADR cells assessed as reduction in cell viability incubated for 48 hrs by MTT assay. Type of experiment: functional, cell-based.
Experiment [9] in a line: Inhibition of TrxR (unknown origin) using DTNB as substrate incubated for 5 mins in presence of NADPH followed by substrate addition by microplate reader analysis. On the set-up: species or system Homo sapiens.
Experiment [10] in a line: Inhibition of TrxR in human MHCC97H cells using DTNB as substrate preincubated for 24 hrs in presence of NADPH followed by substrate addition by microplate reader analysis. Type of experiment: cell-based.

Structures can show the parent of a compound that is named as a salt.

On to `COc1ccc2c(/C=C/C(=O)c3cc(N)c(OC)c(OC)c3)c[nH]c2c1`, for which the IC50 with A2780 was 204 nM; in the experiment on MHCC97H [1], 186 nM; with MCF7 it was 249 nM; in the experiment with HeLa it was 155 nM; in the experiment with A549, 193 nM; in the experiment with HCT-8 it was 368 nM.

On to `CC(=O)O[C@H]1C(=O)[C@@]2(C)[C@H]([C@H](OC(=O)c3ccccc3)[C@]3(O)C[C@H](OC(=O)[C@H](O)[C@@H](NC(=O)c4ccccc4)c4ccccc4)C(C)=C1C3(C)C)[C@]1(OC(C)=O)CO[C@@H]1C[C@@H]2O` [PACLITAXEL], for which the IC50 in the experiment on A2780 came out at 21 nM; in experiment [2] it was 344 nM. Further, the “Ratio IC50” value in experiment [3] came out at 16.4.

On to `COc1cc(C(=O)/C=C/c2cn(C)c3ccccc23)cc(N)c1OC`, for which the concentration for half-maximal inhibition (IC50) in the experiment with A2780 worked out at 441 nM; with MHCC97H [1] it was 289 nM; in the experiment on MCF7, 631 nM; with HeLa it was 668 nM; with A549, 498 nM; with HCT-8, 605 nM.

Take `CC[C@]1(O)C[C@H]2CN(CCc3c([nH]c4ccccc34)[C@@](C(=O)OC)(c3cc4c(cc3OC)N(C=O)[C@H]3[C@@](O)(C(=O)OC)[C@H](OC(C)=O)[C@]5(CC)C=CCN6CC[C@]43[C@@H]65)C2)C1` [VINCRISTINE]: the “Ratio IC50” value in experiment [4] is 47. In addition, the IC50 is 10.2 µM in experiment [5] and 217 nM in the experiment with HCT-8.

Consider `COc1cc(C(=O)/C=C/c2cn(C)c3ccccc23)cc(SC)c1OC`, for which the IC50 with A2780 came to 193 nM; in the experiment on MHCC97H [1], 150 nM; in the experiment with MCF7 it was 102 nM; in the experiment on HeLa it was 105 nM; in the experiment with A549 it was 188 nM; in the experiment with HCT-8, 210 nM.

Regarding `O=c1c2ccccc2[se]n1CCn1[se]c2ccccc2c1=O`, the Activity is given as 1.119 g with MHCC97H [6] and 832.6 mm3 with MHCC97H [8]. The inhibition in vivo at 30 mg/kg with MHCC97H [7] was 51.7%.

For `COc1ccc2c(/C=C/C(=O)c3cc(OC)c(OC)c([N+](=O)[O-])c3)c[nH]c2c1`, the IC50 amounted to 742 nM with A2780; 289 nM with MHCC97H [1]; 662 nM in the experiment on MCF7; 850 nM with HeLa; 331 nM with A549; 982 nM in the experiment on HCT-8.

Turning to `COc1cc(C(=O)/C(C)=C/c2cn(C)c3ccccc23)cc([Se]C)c1OC`, the IC50 in the experiment on A2780 is 35 nM; in the experiment with MHCC97H [1], 26 nM; with MCF7, 77 nM; with HeLa it was 63 nM; with A549, 18 nM; in the experiment with HCT-8 it was 48 nM.

In the case of `COc1cc(C(=O)/C(C)=C/c2c[nH]c3ccccc23)cc([Se]C)c1OC`, the IC50 was 25 nM in the experiment on A2780; 18 nM in the experiment on MHCC97H [1]; 59 nM with MCF7; 34 nM with HeLa; 12 nM with A549; 32 nM in the experiment on HCT-8.

As for `COc1ccc2c(/C=C/C(=O)c3cc(OC)c(OC)c(SC)c3)cn(C)c2c1`, the IC50 in the experiment on A2780 stood at 145 nM; in the experiment with MHCC97H [1], 122 nM; in the experiment on MCF7, 166 nM; in the experiment with HeLa, 167 nM; in the experiment with A549, 156 nM; with HCT-8, 157 nM.

Consider `COc1cc(C(=O)/C=C/c2c[nH]c3ccccc23)cc(SC)c1OC`, for which the IC50 with A2780 was 169 nM; in the experiment on MHCC97H [1] it was 131 nM; in the experiment on MCF7, 186 nM; with HeLa, 159 nM; with A549, 152 nM; with HCT-8 it was 167 nM.

In the case of `COc1cc(C(=O)/C=C/c2c[nH]c3ccccc23)cc([N+](=O)[O-])c1OC`, the IC50 with A2780 is 1280 nM; in the experiment on MHCC97H [1], 830 nM; in the experiment with MCF7, 1290 nM; with HeLa, 1350 nM; in the experiment with A549, 1510 nM; in the experiment on HCT-8, 1390 nM.

Regarding `COc1cccc2c1C(=O)c1c(O)c3c(c(O)c1C2=O)C[C@@](O)(C(=O)CO)C[C@@H]3O[C@H]1C[C@H](N)[C@H](O)[C@H](C)O1` [DOXORUBICIN HYDROCHLORIDE], the IC50 in the experiment on NCI/ADR-RES came out at 232 µM.

Turning to `COc1cc(C(=O)/C=C/c2cn(C)c3ccccc23)cc([N+](=O)[O-])c1OC`, the IC50 with A2780 was found to be 1890 nM; with MHCC97H [1] it was 850 nM; with MCF7, 1770 nM; with HeLa it was 1960 nM; in the experiment with A549, 1060 nM; in the experiment on HCT-8, 1660 nM.

As for `COc1ccc2c(/C=C/C(=O)c3cc(OC)c(OC)c(SC)c3)c[nH]c2c1`, the IC50 in the experiment with A2780 amounted to 139 nM; in the experiment with MHCC97H [1], 112 nM; in the experiment on MCF7, 101 nM; in the experiment with HeLa, 131 nM; in the experiment on A549 it was 115 nM; in the experiment on HCT-8, 138 nM.

In the case of `COc1ccc2c(/C=C(\C)C(=O)c3cc(OC)c(OC)c([Se]C)c3)cn(C)c2c1`, the IC50 in the experiment with A2780 is 26 nM; in the experiment on MHCC97H [1], 15 nM; with MCF7, 44 nM; in the experiment on HeLa, 32 nM; in the experiment with A549, 15 nM; in the experiment on HCT-8 it was 25 nM.

As for `COc1cc(C(=O)/C=C/c2c[nH]c3ccccc23)cc(N)c1OC`, the IC50 worked out at 351 nM with A2780; 263 nM in the experiment with MHCC97H [1]; 595 nM in the experiment on MCF7; 529 nM in the experiment with HeLa; 342 nM with A549; 577 nM in the experiment with HCT-8.

On to `COc1ccc(/C=C\c2cc(OC)c(OC)c(OC)c2)cc1OP(=O)(O)O` [FOSBRETABULIN], for which the Activity was 0.888 g with MHCC97H [6] and 1031.1 mm3 with MHCC97H [8]. Moreover, in the experiment with MHCC97H [7], the inhibition in vivo at 30 mg/kg turned out to be 39.2%.

Take `COc1ccc(/C=C\c2cc(OC)c(OC)c(OC)c2)cc1O` [COMBRETASTATIN A4]: the half-inhibitory concentration (IC50) in the experiment on MHCC97H [1] was determined as 8 nM; in the experiment on MCF7, 29 nM; in the experiment with HeLa it was 16 nM; with HCT-8, 23 nM.

Take `COc1cc(/C=C/C(=O)CC(=O)/C=C/c2ccc(O)c(OC)c2)ccc1O` [CURCUMIN]: the IC50 in experiment [9] came out at 29 µM; in experiment [10], 28.8 µM.

`COc1ccc2c(/C=C/C(=O)c3cc(OC)c(OC)c([N+](=O)[O-])c3)cn(C)c2c1`: the IC50 in the experiment with A2780 amounted to 952 nM; with MHCC97H [1], 562 nM; in the experiment on MCF7 it was 1520 nM; in the experiment with HeLa, 951 nM; in the experiment with A549, 1020 nM; in the experiment with HCT-8, 753 nM.

Take `COc1ccc2c(/C=C/C(=O)c3cc(OC)c(OC)c([Se]C)c3)c[nH]c2c1`: the IC50 in the experiment with A2780 is 65 nM; in the experiment on MHCC97H [1], 58 nM; with MCF7 it was 83 nM; in the experiment with HeLa it was 104 nM; in the experiment on A549, 67 nM; in the experiment on HCT-8, 78 nM.

Turning to `COc1ccc2c(/C=C/C(=O)c3cc(N)c(OC)c(OC)c3)cn(C)c2c1`, the IC50 in the experiment on A2780 came to 156 nM; with MHCC97H [1], 198 nM; in the experiment with MCF7, 505 nM; in the experiment with HeLa, 356 nM; with A549 it was 106 nM; with HCT-8 it was 455 nM.
